The target of series [1] is α4β2 nAChRs (Rattus norvegicus, UniProt P09483+P12390). Put plainly: biochemical. Type of series: binding.
Where [2] appears, read: read-out: α4β2 [^3H]Epibatidine (Ki), Table 1, male rat cerebral cortex homogenate, 0.5-2 nM [3H]epibatidine, Ki from IC50 by Cheng-Prusoff.
[3] abbreviates: Table 1, [3H]epibatidine binding, rat cerebral cortex.

Like-named read-outs stand apart in the source and are kept apart here.

Sequence of α4β2 nAChRs (P09483 31-630): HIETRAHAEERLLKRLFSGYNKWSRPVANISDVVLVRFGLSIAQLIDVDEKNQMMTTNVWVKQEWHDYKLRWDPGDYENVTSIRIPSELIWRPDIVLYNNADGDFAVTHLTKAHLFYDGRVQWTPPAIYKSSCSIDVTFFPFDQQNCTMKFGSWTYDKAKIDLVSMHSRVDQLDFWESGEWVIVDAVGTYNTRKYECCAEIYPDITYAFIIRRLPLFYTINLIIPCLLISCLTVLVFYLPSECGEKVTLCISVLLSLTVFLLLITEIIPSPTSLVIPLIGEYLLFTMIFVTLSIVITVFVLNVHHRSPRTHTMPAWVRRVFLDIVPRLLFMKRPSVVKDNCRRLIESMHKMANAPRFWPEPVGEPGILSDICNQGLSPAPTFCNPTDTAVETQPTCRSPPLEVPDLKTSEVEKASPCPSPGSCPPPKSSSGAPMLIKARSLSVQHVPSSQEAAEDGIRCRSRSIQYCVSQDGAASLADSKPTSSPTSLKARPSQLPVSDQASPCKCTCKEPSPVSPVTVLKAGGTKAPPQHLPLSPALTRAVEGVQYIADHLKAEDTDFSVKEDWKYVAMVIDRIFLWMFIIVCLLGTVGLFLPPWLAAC
Sequence of α4β2 nAChRs (P12390 25-500): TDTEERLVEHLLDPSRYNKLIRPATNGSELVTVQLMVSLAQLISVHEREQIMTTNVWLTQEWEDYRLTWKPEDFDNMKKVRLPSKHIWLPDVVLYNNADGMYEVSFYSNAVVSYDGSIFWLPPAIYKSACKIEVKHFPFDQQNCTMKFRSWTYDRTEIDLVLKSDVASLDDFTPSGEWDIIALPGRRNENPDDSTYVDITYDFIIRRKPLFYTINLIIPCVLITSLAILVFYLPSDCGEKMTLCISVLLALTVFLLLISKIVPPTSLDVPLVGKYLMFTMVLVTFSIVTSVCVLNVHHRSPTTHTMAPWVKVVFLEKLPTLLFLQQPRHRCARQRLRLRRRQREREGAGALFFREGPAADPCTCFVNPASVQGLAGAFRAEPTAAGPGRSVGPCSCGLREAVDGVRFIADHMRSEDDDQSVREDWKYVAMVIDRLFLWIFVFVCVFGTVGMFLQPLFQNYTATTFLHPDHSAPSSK

For `Fc1ncc(C2CC3CCC2N3)cc1I` (centres unmarked) [compound 39], in series [1], the “Hill Slope” value amounted to 1.0 ± 0.05 and the affinity, expressed as Ki, was 0.076 ± 0.004 nM.
On to `Nc1ncc(C2CC3CCC2N3)cc1I` (stereo not drawn) [RTI-7527-24, 2-exo-[5′-(3′-Iodo-2′-aminopyridinyl)]-7-azabicyclo[2.2.1]-heptane], for which the “Hill Slope” value in series [1] (Table 1, [3H]epibatidine binding, rat cerebral cortex, listed as 34) is given as 1.08 ± 0.03. Moreover, in series [1] (setting [2]), the Ki was found to be 35.5 ± 5.4 nM.
As for `Fc1ccc(C2CC3CCC2N3)cn1` (centres unmarked) [compound 13], in series [1] (setting [3]), the “Hill Slope” value is reported as 0.9 ± 0.02. Besides, in series [1] (setting [2]), the inhibition constant (Ki) was 0.027 ± 0.001 nM.
As for `Nc1ncc(C2CC3CCC2N3)cc1I` (centres unmarked) [RTI-7527-57], in series [1], the Ki worked out at 1.47 ± 0.12 nM. Also, the “Hill Slope” value in series [1] (Table 1, [3H]epibatidine binding, rat cerebral cortex, listed as 24) is 1.07 ± 0.14.
Consider `Oc1ncc(C2CC3CCC2N3)cc1-c1ccccc1` (centres unmarked) [compound 29], for which, in series [1], the “Hill Slope” value was determined as 1.04 ± 0.07 and the affinity, expressed as Ki, was 51.9 ± 2 nM.
As to `Cc1nc(Cl)ccc1C1CC2CCC1N2` (centres unmarked) [compound 5], the inhibition constant (Ki) in series [1] was determined as 256 ± 74 nM. Moreover, the “Hill Slope” value in series [1] (setting [3]) is 1.1 ± 0.03.
Consider `Fc1cncc(C2CC3CCC2N3)c1` (centres unmarked) [compound 36], for which the “Hill Slope” value in series [1] (setting [3]) was determined as 0.9 ± 0.01. The Ki in series [1] (setting [2]) was determined as 0.037 ± 0.001 nM.
In series [1], `Brc1cc(C2CC3CCC2N3)cnc1I` (centres unmarked) [RTI-7527-50] had a Ki of 0.027 ± 0.002 nM. In addition, in series [1] (setting [3]), the “Hill Slope” value amounted to 0.96 ± 0.05.
For `Clc1ncc(C2CC3CCC2N3)cc1I` (centres unmarked) [RTI-7527-4] the same measures were 0.012 ± 0.0003 nM and 0.83 ± 0.03.
Regarding `Nc1ccc(C2CC3CCC2C3)cn1` (centres unmarked) [compound 54], in series [1], the “Hill Slope” value is 1.1 and affinity was put at a Ki of 2200 nM.
As to `CN(C)c1ccc(C2CC3CCC2N3)cn1` (centres unmarked) [compound 19], the “Hill Slope” value in series [1] (setting [3]) is recorded as 1.0 ± 0.01. Also, the inhibition constant Ki in series [1] (setting [2]) was 26.4 ± 1.4 nM.
In series [1], `CON=C1C2CCC1C(c1ccc(Cl)nc1)C2` (centres unmarked) [compound 2] registered a Ki of more than 1000 nM.
Consider `CN1C2CCC1C(c1ccc(Cl)nc1)C2` (centres unmarked) [compound 11], for which the melting point lay within 100 to 102 °C. Affinity in series [1] was put at a Ki of 22.8 ± 0.001 nM. In series [1] (second table (structures A, B, C), [3H]epibatidine binding, rat cerebral cortex), the “Hill Slope” value came out at 1.07 ± 0.05.
Turning to `Nc1ncc(C2CC3CCC2N3)cc1-c1cccc([N+](=O)[O-])c1` (centres unmarked) [compound 42], in series [1], the “Hill Slope” value turned out to be 1.1 ± 0.09 and the Ki was 0.047 ± 0.002 nM.
As to `Clc1ncc(C2CC3CCC2N3)cc1Br` (centres unmarked) [RTI-7527-53], the “Hill Slope” value in series [1] (setting [3]) amounted to 0.95 ± 0.09. Moreover, the Ki in series [1] (setting [2]) was found to be 0.013 ± 0.001 nM.
Take `OC1C2CCC1C(c1ccc(Cl)nc1)C2` (centres unmarked) [compound 50]: the Ki in series [1] was more than 1000 nM.
On to `Clc1ncc(C2CC3CCC2N3)cc1-c1ccccc1` (centres unmarked) [RTI-7527-2], for which the “Hill Slope” value in series [1] (setting [3]) is given as 0.81 ± 0.02. For the same molecule, in series [1] (setting [2]), the Ki was 0.021 ± 0.005 nM.
On to `Fc1cc(C2CC3CCC2N3)cnc1F` (centres unmarked) [compound 38], for which, in series [1], affinity was put at a Ki of 0.055 ± 0.001 nM. Moreover, in series [1] (setting [3]), the “Hill Slope” value is 1.0 ± 0.01.
For `Nc1ncc(C2CC3CCC2N3)cc1-c1ccccc1` (centres unmarked) [RTI-7527-51] the same measures were 0.33 ± 0.05 nM and 0.93 ± 0.03.
In series [1], `Fc1ncc(C2CC3CCC2N3)cc1Cl` (centres unmarked) [compound 37] yielded a Ki of 0.02 ± 0.0003 nM. The “Hill Slope” value in series [1] (setting [3]) is 0.8 ± 0.004.
`NC1C2CCC1C(c1ccc(Cl)nc1)C2` (centres unmarked) [compound 3] came in with a Ki in series [1] of 8.2 ± 0.08 nM. The “Hill Slope” value in series [1] (setting [3]) was determined as 1.2 ± 0.04.
Turning to `Clc1cc(C2CC3CCC2N3)cnc1Cl` (centres unmarked) [RTI-7527-5], the melting point is 75 to 80 °C. The molecule further gave a Ki in series [1] of 0.015 ± 0.001 nM. Moreover, in series [1] (setting [3]), the “Hill Slope” value worked out at 0.87 ± 0.04.
In series [1], `Fc1ncc(C2CC3CCC2N3)cc1-c1ccccc1` (centres unmarked) [compound 47] showed a Ki of 0.14 ± 0.07 nM. In series [1] (setting [3]), the “Hill Slope” value turned out to be 1.1 ± 0.04.
`Clc1cncc(C2CC3CCC2N3)c1` (centres unmarked) [compound 35]: the affinity in series [1] corresponds to a Ki of 0.12 ± 0.006 nM. In series [1] (setting [3]), the “Hill Slope” value is reported as 0.9 ± 0.03.
In series [1], `COc1cccc(-c2cc(C3CC4CCC3N4)cnc2Cl)c1` (centres unmarked) [compound 45] returned a Ki of 0.019 ± 0.005 nM. Further, the “Hill Slope” value in series [1] (setting [3]) came out at 0.8 ± 0.02.
As to `COc1cccc(-c2cncc(C3CC4CCC3N4)c2)c1` (centres unmarked) [compound 46], in series [1] (setting [3]), the “Hill Slope” value was 0.9 ± 0.03. For the same molecule, the Ki in series [1] (setting [2]) came out at 0.43 ± 0.05 nM.
`Ic1ncc(C2CC3CCC2N3)cc1-c1ccccc1` (centres unmarked) [RTI-7527-3] displayed a Ki in series [1] of 0.019 ± 0.002 nM. In addition, the “Hill Slope” value in series [1] (setting [3]) is reported as 0.84 ± 0.02.
On to `Ic1cncc(C2CC3CCC2N3)c1` (centres unmarked) [compound 41], for which, in series [1] (setting [3]), the “Hill Slope” value came to 0.9 ± 0.02. Further, the Ki in series [1] (setting [2]) is 0.059 ± 0.001 nM.

(Values after US7615567B2, “Compounds and methods for promoting smoking cessation” (priority 2000, dated 2009).)
